Several values for one entry are separate records, joined by “and”; a condition that tells them apart may be missing. Identical values can stand only once. Numbered stars: 1 amine (or outer) side, 2 acyl side, 3 side chain; on linkers, the order of the positions; unused ones are H or OH. Bridge positions count the residues as written; N and C are the ends. Square brackets hold non-standard residues; d marks the D form. Peptide text beside a SMILES is read from it. I, II: the chains in the order shown. * marks the point of attachment. ξ: configuration not given here. X4 = CN1/C(=C/C=C/C=C/C2=[N+](CCCCCC(=O)*)c3ccc4ccccc4c3C2(C)C)C(C)(C)c2c1ccc1ccccc21; Hexanoyl(6-succinimido-3yl) = O=C1CC([*:1])C(=O)N1CCCCCC(=O)[*:2]; X5 = CC[C@H](C)[C@@H]([C@H](CC(=O)[*:2])OC)N(C)[*:1]; Dolaproine = CO[C@@H]([C@@H]1CCCN1)[C@@H](C)C(=O)O; Dil = CC[C@H](C)[C@H](NC)[C@@H](CC(=O)O)OC; γGlu = O=C(O)[C@H](CCC(=O)[*:2])N[*:1]; PABC = O=C(OCc1ccc(N[*:1])cc1)[*:2]; ξγGlu = O=C(O)C(CCC(=O)[*:2])N[*:1]; X1 = C[C@@H](N*)[C@@H](O)c1ccccc1; Trx = NC[C@H]1CC[C@H](C(=O)O)CC1; X3 = O=C(C1CCC(CN[*:1])CC1)[*:2]; Cit = NC(=O)NCCC[C@H](N)C(=O)O; NMeV = CN[C@H](C(=O)O)C(C)C; ξE = NC(CCC(=O)O)C(=O)O; CO = O=C([*:1])[*:2]; ξK = NCCCCC(N)C(=O)O; Ahx = NCCCCCC(=O)O; ξC = NC(CS)C(=O)O
Tests used:
PC3pip cells [1] = assay: In vitro cytotoxicity by MTT assay, PC3pip; format: cell-based, human; details: 5 nM, 24 h
Procedure: (§1) In vitro cytotoxicity was measured by MTT assay. Cells (10000 cells/well) were seeded in 96-well plates and incubated for 24 h before adding 5 nM free MMAE, PSMA-MMAE, or PSMA-AuNCs-MMAE. An equivalent amount of PSMA-AuNCs without MMAE was added as a control, and another group of cells pretreated with 50 μM E64 inhibitor for 6 h was also incubated with PSMA-AuNCs-MMAE. After incubation for 1, 4, and 24 h, cells were rinsed with PBS and incubated with 1 mg/mL MTT solution in culture media for 3.5 h. After that media were removed, and 100 μL of DMSO was added. The absorbance was measured 15 min later by a plate reader (Tecan Infinite M200) with absorbance at 570 nm and reference at 620 nm.

PC3pip cells [2] = assay: In vitro radiotherapy (colony survival); format: cell-based, human; details: 1 nM MMAE and/or 60 μg Au/mL, 6 h, X-ray 0-6 Gy
Procedure: Both PC3pip and PC3flu cells (1×10^5 cells/well) were cultured in 6-well plates for 24 h, and then PSMA-AuNC-MMAE and PSMA-MMAE were added at an equivalent MMAE concentration of 1 nM. Additionally, PSMA-AuNCs without MMAE was added at 60 μg Au/mL. Another group with the addition of a mixture of PSMA-AuNCs and PSMA-AuNC-MMAE at the equivalent dose of Au and MMAE was also evaluated. Mixing was performed so as to keep Au concentrations equivalent. This could not be achieved by adding more PSMA-AuNC-MMAE as this would result in toxic levels of MMAE. Cells without any treatment were used as blank control. Following incubation for 6 h, the media were removed, and cells were rinsed by PBS before exposing to X-ray radiation at doses of 0, 2, 4, and 6 Gy. Next, cells were trypsinized, counted, and reseeded in 6-well plate for colonies to grow. After 2 weeks, all the wells were rinsed with PBS, fixed with 4% paraformaldehyde, and stained by 0.4% crystal violet. The number of colonies from each well was counted to calculate the survive fraction.

[3] = In vitro cytotoxicity by MTT assay, PC3flu; format: cell-based, human; details: 5 nM, 24 h, read-out: cell killing / drop of viability, PC3flu cells
Procedure: as §1

PC3pip tumor = assay: In vivo chemoradiotherapy; parameters: species or system mice
Procedure: Male athymic nude mice were subcutaneously implanted with the PC3pip tumor, and when the tumor size reached about 100 mm^3 (tumor volume=length×width^2/2), the mice were divided into ten groups randomly. Each group was intravenously injected with PBS, PSMA-AuNCs, PSMA-AuNCs-MMAE, PSMA-MMAE, or a mixture of PSMA-AuNCs and PSMA-MMAE at MMAE dose of 400 nmol/kg and an equivalent dose of Au. At 4 h postinjection, five of the groups were irradiated with X-rays (6 Gy, Cs-137 with energy of 0.6616 MeV) focusing on the tumor region, and the other five groups received the same injections but no radiation and were used as controls. Each group contained five mice. All the treatments were given only once, and then the mice were monitored for tumor size and body weight every other day for one month. The coefficient of drug interaction (CDI) is calculated as follows: CDI=C/(A×B),^44 where C is the tumor volume ratio of PSMA-AuNCs-MMAE+RT group to control group, A is the tumor volume ratio of PSMA-AuNCs+RT group to control group, and B is the tumor volume ratio of PSMA-MMAE+RT group to control group; PBS+RT group is the control. […] When the tumors became too large or an animal was moribund, they were euthanized. At the end of monitoring, all mice were euthanized and tumors were isolated and weighed.

[4] = tested on: PSMA-positive PC3pip cells; assay: In vitro cytotoxicity assay (CCK-8), PC3pip; format: cell-based, human
Procedure: Cells (1,000/well) were seeded in 96-well culture plates the day before treatment. Cells were incubated with various concentrations of drugs for 72 hours and cell viability evaluated by CCK-8 (Dojindo). The concentration required to reach 50% of cell proliferation was determined (IC50) by GraphPad Prism 3.0.

[5] = tested on: PSMA receptor expressed on the PC3pip cells; assay: In vitro cellular uptake studies, Example 1; format: cell-based, human; details: 50 nM, 4 hours
Procedure: PC3pip and PC3flu cells were seeded in p-Slide 8-Well Chamber Slide (ibidi GmbH) at 2,000 cells/well. When cells grew to 70% confluency, PSMA-1-VcMMAE-Cy5.5 or PSMA-1-McMMAE-Cy5.5 conjugations were added at 50 nM and incubated at 37° C. for 4 hours. Cells were washed with PBS and stained with DAPI and LysoOrange (Abcam) for 30 minutes at 37° and 5% CO2, after which they were washed again with PBS and filled with fresh medium. Selectivity was determined by including 20-fold excess of the PSMA-1 ligand. The uptake and localization of the drug conjugates were visualized under a Leica HyVolution SP8 confocal microscope at 40×.

heterotopic C4-2 tumors = assay: Antitumor activity in heterotopic C4-2 tumors; format: in vivo, mice
Excerpt: To show versatility of the antitumor activity of PSMA-1-VcMMAE-Cy5.5, we tested it in mice bearing heterotopic C4-2 tumors, which are androgen-independent prostate cancer cells endogenously expressing PSMA.

PC3pip and PC3flu tumors = assay: In vivo NIR imaging studies, Example 1; parameters: species or system mice; details: 40 nmol/kg i.v., fluorescence imaging
Procedure: Under guidelines of the animal care and use committee at Case Western Reserve University (IACUC #150033) 6 to 8-week old male Balb/cathymic nude mice were implanted subcutaneously with 1×10^6 of PC3flu and PC3pip on the left and right dorsum respectively. Mice received 40 nmol/kg of PSMA-1-VcMMAE-Cy5.5 or PSMA-1-McMMAE-Cy5.5 in PBS via tail vein injection when tumors reached 10 mm in diameter. Fluorescence imaging was performed using the Maestro In Vivo Imaging system (Perkin-Elmer). Multispectral images were unmixed into their component spectra (PSMA probes, autofluorescence, and background) to quantitate the average fluorescence intensity associated with the tumors using regions of interest (ROIs) around the tumors.

[6] = tested on: heterotopic PC3pip tumors; assay: Heterotopic survival study; format: in vivo, mice; details: for antitumor activity (tumor growth), words: 160 nmol/kg i.v. every four days
Excerpt: Male athymic nude mice were implanted subcutaneously with 1×10^6 of PC3pip cells under the right dorsum of the mice. When tumor size reached approximately 100 mm^3 (tumor volume=Length×width^2/2), mice received drugs through tail vein injection. […] Animals were weighed and tumor size measured every other day for 90 days. Cures were defined as no tumor present at end of the 90-day study. When tumors became too large or animals were moribund they were euthanized. Five mice were used in each group.

orthotopic PC3pip tumors = assay: Orthotopic survival study; format: in vivo, mice; details: every four days, 5 doses
Procedure: Surgical orthotopic tumor implantation was performed as previously reported. Tumor growth/size was monitored using Siemens Acuson S2000 ultrasound scanner. When the tumors were at the appropriate size (5 mm as measured by ultrasound, approximately 2 weeks) animals were given PSMA-1-VcMMAE, PSMA-1-VcMMAE-Cy5.5, or PBS every four days with a total of 5 doses. Tumors were monitored every other day by ultrasound. Each group had five mice.

[7] = Stability of conjugates incubated with PBS, Example 1; format: physicochemical; details: without enzyme
Procedure: To investigate if PSMA-targeted drug conjugates were cleavable by cathepsin B, the two conjugates were incubated with or without the enzyme and chromatographed by HPLC. When the conjugates were incubated with PBS, both PSMA-1-VcMMAE-Cy5.5 and PSMA-1-McMMAE-Cy5.5 were stable (FIG. 1D).

[8] = tested on: α-tubulin in PC3pip and PC3flu cells; assay: Immunofluorescence analysis of alpha-tubulin; format: cell-based, human; details: 5 nM, 24 hours
Procedure: Cells on coverslips at about 70% confluency were incubated with 5 nM of MMAE, PSMA-1-VcMMAE-Cy5.5 or PSMA-1-McMMAE-Cy5.5 for 24 hours. Cells were washed and fixed with 4% paraformaldehyde for 10 minutes, permeabilized with 0.1% Triton™ X-100 for 10 minutes, and blocked with 1% BSA for 1 hour at room temperature. Alpha-tubulin (B5-1-2) Alexa Fluor 488 Mouse Monoclonal Antibody (Invitrogen) was then added at 2 μg/mL in 0.1% BSA and incubated for 3 hours at room temperature. Cells were counterstained with DAPI, mounted with Fluor-Mount aqueous mounting solution, and observed under Leica DM4000B fluorescence microscopy at 40×.

PC3flu cells = assay: In vitro cytotoxicity by MTT assay, PC3flu; format: cell-based, human; details: 5 nM, 24 h
Procedure: as §1

[9] = Maximum tolerated dose (MTD); format: in vivo, mice; details: single dose i.v., tumor-free athymic nude mice
Excerpt: Mice were monitored daily for 14 days.

Row | SMILES | cell killing, PC3pip cells (PC3pip cells [1]) | radiosensitization (colony survival rate) of PC3pip cells (PC3pip cells [2]) | cytotoxicity [3] | tumor volume increase (PC3pip tumor; 6 Gy radiation, day 30, MMAE 400 nmol/kg) | tumor volume increase (PC3pip tumor; no radiation, end of observation, MMAE 400 nmol/kg) | IC50 ([4]; 72 hours incubation, CCK-8) | effect of protease inhibitor E64 on cell killing ([4]; co-incubation with 50 μM E64) | cellular binding and uptake, competition with PSMA-1 ligand [5] | cure rate (heterotopic C4-2 tumors) | time of peak uptake in PC3pip tumors (PC3pip and PC3flu tumors) | cure rate (no tumors at end of 90-day study) ([6]; 160 nmol/kg i.v. every 4 days, 5 doses) | antitumor activity (tumor growth), words ([6]; 5 doses) | tumor growth when given every 7 days ([6]; dosing every 7 days) | cure at day 90 (orthotopic PC3pip tumors) | stability when incubated with PBS [7] | disruption of α-tubulin network [8] | selectivity, differential cytotoxicity between PC3pip and PC3flu cells ([4]; 72 hours incubation) | cell killing / drop of viability, PC3flu cells (PC3flu cells) | time by which all mice died ([6]; 160 nmol/kg) | maximum tolerated dose (MTD) [9]
1 | CC[C@H](C)[C@@H]([C@@H](CC(=O)N1CCC[C@H]1[C@H](OC)[C@@H](C)C(=O)N[C@H](C)[C@@H](O)c1ccccc1)OC)N(C)C(=O)[C@@H](NC(=O)[C@H](C(C)C)N(C)C(=O)OCc1ccc(NC(=O)[C@H](CCCNC(N)=O)NC(=O)[C@@H](NC(=O)CCCCCN2C(=O)CC(SC[C@H](NC(=O)[C@H](Cc3ccc(O)cc3)NC(=O)[C@H](CCCCN)NC(=O)[C@H](CCC(=O)O)NC(=O)[C@H](CCC(=O)O)NC(=O)[C@H](CCC(=O)O)NC(=O)CCCCCNC(=O)[C@H]3CC[C@H](CNC(=O)CC[C@H](NC(=O)N[C@@H](CCC(=O)O)C(=O)O)C(=O)O)CC3)C(N)=O)C2=O)C(C)C)cc1)C(C)C (stereo partly drawn) [PSMA-MMAE] (I: {Glu-CO-γGlu-Trx-Ahx}-EEEKYC-NH2 / II: V[Cit][PABC][NMeV]V[Dil][Dolaproine]-X1; linker I:6-II:N via Hexanoyl(6-succinimido-3yl); C-terminus assumed) | 58% | notably lower survival rate | 18% | 55% | 163% |  |  |  |  |  |  |  |  |  |  |  |  |  |  | 
2 | CC[C@H](C)[C@@H]([C@H](CC(=O)N1CCC[C@H]1[C@H](OC)[C@@H](C)C(=O)N[C@H](C)[C@@H](O)c1ccccc1)OC)N(C)C(=O)[C@@H](NC(=O)[C@H](C(C)C)N(C)C(=O)OCc1ccc(NC(=O)[C@H](CCCNC(N)=O)NC(=O)[C@@H](NC(=O)CCCCCN2C(=O)CC(SCC(NC(=O)C(CCC(=O)O)NC(=O)C(CCC(=O)O)NC(=O)C(CCC(=O)O)NC(=O)CCCCCNC(=O)C3CCC(CNC(=O)CCC(NC(=O)NC(CCC(=O)O)C(=O)O)C(=O)O)CC3)C(=O)NCCCCCC(=O)NC(CCCCNC(=O)CCCCC[N+]3=C(/C=C/C=C/C=C4/N(C)c5ccc6ccccc6c5C4(C)C)C(C)(C)c4c3ccc3ccccc43)C(N)=O)C2=O)C(C)C)cc1)C(C)C (some centres unmarked) [PSMA-1-VcMMAE-Cy5.5] (I: {ξE-CO-ξγGlu}-[X3][Ahx][ξE][ξE][ξE][ξC][Ahx][ξK](X4)-NH2 / II: V[Cit][PABC][NMeV]V[X5][Dolaproine]-X1; linker I:6-II:N via Hexanoyl(6-succinimido-3yl)) |  |  |  |  |  | 0.84 nM and 0.75 nM | reduced the potency | selective and specific for the PSMA receptor | 40% | 24 h | 60% | effectively inhibited tumor growth | greatly inhibited tumor growth | 40% | stable | selective disruption of tubulin in PC3pip cells |  |  |  | 
3 | CC[C@H](C)[C@@H]([C@@H](CC(=O)N1CCC[C@H]1[C@H](OC)[C@@H](C)C(=O)N[C@H](C)[C@@H](O)c1ccccc1)OC)N(C)C(=O)[C@@H](NC(=O)[C@@H](NC)C(C)C)C(C)C [MMAE, monomethyl auristatin E, reference compound] (H-[NMeV]V[Dil][Dolaproine]-X1) | over 70% |  |  |  |  |  |  |  |  |  |  | relatively ineffective at inhibiting tumor growth |  |  |  | non-selective tubulin disruption | no selectivity | over 70% | ≤ 36 days | 700 nmol/kg
